How the values were obtained:
[1] = target: T1, Leukocyte-LpL (Homo sapiens, UniProt P06858); experiment: Leukocyte LpL hydrolytic potential / lipase response to stimulation assay (fluorogenic ENZCHEK TG substrate); format: cell-based; details: leukocytes washed with heparin removing surface LpL
T1 construct: analyze the activity of endogenous cell-associated LpL from a blood sample; host or cells: primary leukocytes (buffy coat) from fresh whole blood
T1 sequence (P06858 28-475): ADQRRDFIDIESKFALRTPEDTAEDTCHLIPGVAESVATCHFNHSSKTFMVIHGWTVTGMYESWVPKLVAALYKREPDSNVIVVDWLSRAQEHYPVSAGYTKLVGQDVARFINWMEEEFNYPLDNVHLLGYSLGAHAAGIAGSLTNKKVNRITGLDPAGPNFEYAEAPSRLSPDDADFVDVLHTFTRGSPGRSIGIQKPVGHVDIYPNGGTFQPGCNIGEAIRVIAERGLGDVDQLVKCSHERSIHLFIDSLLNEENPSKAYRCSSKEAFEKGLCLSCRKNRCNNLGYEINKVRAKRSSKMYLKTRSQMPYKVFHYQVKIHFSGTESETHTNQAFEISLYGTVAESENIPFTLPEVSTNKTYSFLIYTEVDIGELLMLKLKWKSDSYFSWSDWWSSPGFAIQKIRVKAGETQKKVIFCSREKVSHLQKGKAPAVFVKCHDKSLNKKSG
Protocol: FIG. 6. Leukocyte-LpL activity is detectible and responsive to C-II51-79 and AV199-232 peptide stimulation. Leukocytes (buffy coat) was collected by centrifugation of fresh whole blood from healthy donors (Zen Bio Inc.), rinsed and then incubated with LpL reaction mix (A, B). Leukocytes were also incubated with […] CII51-79 and/or AV199-232 (A). […] Increasing fluorescent plate reader gain can increase sensitivity to low femto molar range (C).
Experiments were conducted during development of embodiments of the present invention using an in vitro assay that utilizes bovine milk LpL (SIGMA) diluted to ˜120 ng/ml in Tris-HCl, 0.15M NaCl (TBS), 1%(w/v) BSA, 0.015%(w/v) Zwittergent 3-14, pH 7.8+1 μM to 25 μM ENZCHEK substrate, prepared in black polypropylene microplates. […] Detection of product is performed with a fluorescent plate reader using excitation/emission wavelengths of 482 nm and 515 nm. The assay is sensitive to fmol/L of LpL (130% gain on reader) (FIG. 6C) and product accumulation increases linearly with increasing enzyme concentrations (FIG. 1A). The absolute product concentration is proportional to the relative fluorescence units (RFU) and can be calculated using BODIPY-C12 fatty acid (D3823, Life Technologies Inc.) as a standard and allows the determination of reaction rates (i.e. ng/ml/min) and Michaelis-Menten kinetic parameters. […]

[2] = system: HepG2; experiment: Lipase assay with live cells (HepG2), fluorogenic TG substrate; format: cell-based; details: HepG2 cells washed with heparin
Protocol: FIG. 2. The lipase assay is non-toxic and detects enzyme activity with live cells. The removal of the reaction mix from the cells (HepG2) stops substrate hydrolysis but is reinitiated once added back to the same cells (A).
Experiments were conducted during development of embodiments of the present invention using an in vitro assay that utilizes bovine milk LpL (SIGMA) diluted to ˜120 ng/ml in Tris-HCl, 0.15M NaCl (TBS), 1%(w/v) BSA, 0.015%(w/v) Zwittergent 3-14, pH 7.8+1 μM to 25 μM ENZCHEK substrate, prepared in black polypropylene microplates. In some embodiments, the lipase reaction is performed at room temperature or 37° C. for 10 min to 60 min. Detection of product is performed with a fluorescent plate reader using excitation/emission wavelengths of 482 nm and 515 nm. The assay is sensitive to fmol/L of LpL (130% gain on reader) (FIG. 6C) and product accumulation increases linearly with increasing enzyme concentrations (FIG. 1A). The absolute product concentration is proportional to the relative fluorescence units (RFU) and can be calculated using BODIPY-C12 fatty acid (D3823, Life Technologies Inc.) as a standard and allows the determination of reaction rates (i.e. ng/ml/min) and Michaelis-Menten kinetic parameters. […] Furthermore, the mild nature of the assay formulation allows LpL activity to be determined with live cells in cell culture or isolated cells (FIG. 2).

- Leukocyte substrate hydrolysis after washing cells with heparin [1]: substrate hydrolysis was lost
Substance: heparin
- Substrate hydrolysis by live cells after washing cells with heparin [2]: inhibits substrate hydrolysis

From patent US20180179574A1, “SYSTEMS AND METHODS FOR CHARACTERIZATION OF […]” (The University of Chicago, priority 2015, published 2018)
